In US9271978B2 (Zenith Epigenetics Corp., priority 2012, dated 2016):

Legend:
[1] = tested on: IL-6 and IL-17 cytokines; test: In vivo efficacy in mouse endotoxemia model; settings: C57/B16 mice, oral 75 mg/kg, inhibition in IL-6 and IL-17 post 4-h LPS challenge 0.5 mg/kg i.p.
Method: Sub lethal doses of Endotoxin (E. Coli bacterial lipopolysaccharide) were administered to animals to produce a generalized inflammatory response which was monitored by increases in secreted cytokines. Compounds were administered to C57/B16 mice orally at 75 mg/kg dose to evaluate inhibition in IL-6 and IL-17 cytokines post 4-h challenge with lipopolysaccharide (LPS) at 0.5 mg/kg dose intraperitoneally.

[2] = tested on: Rat collagen-induced arthritis; test: In vivo efficacy in rat collagen-induced arthritis; settings: female Lewis rats, dosed Day 11 to Day 17
Method: Rat collagen-induced arthritis is an experimental model of polyarthritis that has been widely used for preclinical testing of numerous anti-arthritic agents. Following administration of collagen, this model establishes a measurable polyarticular inflammation, marked cartilage destruction in association with pannus formation and mild to moderate bone resorption and periosteal bone proliferation. In this model, collagen was administered to female Lewis strain of rats on Day 1 and 7 of study and dosed with compounds from Day 11 to Day 17. Test compounds were evaluated to assess the potential to inhibit the inflammation (including paw swelling), cartilage destruction and bone resorption in arthritic rats, using a model in which the treatment is administered after the disease has been established.

SMILES | In vivo activity [1] | In vivo activity [2]
Cc1noc(C)c1-c1ccc(=O)n(Cc2ccccc2)c1 [Example 56, 1-Benzyl-5-(3,5-dimethylisoxazol-4-yl)pyridin-2(1H)-one] | Active | 
Cc1noc(C)c1-c1ccc(=O)n(Cc2ccc(Cl)cc2)c1 [Example 128, 1-(4-Chlorobenzyl)-5-(3,5-dimethylisoxazol-4-yl)pyridin-2(1H)-one] | Active | Active
